Test results: publication PMC5732773, “Metabolism, pharmacokinetics, and bioavailability of ZB716, a Steroidal Selective Estrogen Receptor Downregulator (SERD)” (Oncotarget, 2017)
Where two headings read alike, the source gives them in different places. Each block holds one compound with its values, some of them ahead of it.

Assays:
[1] = tested on: UGT1A1, -1A3, -1A4, and -1A8; details: predominant site 3-hydroxyl; cited from earlier work
[2] = parameters: method as in PMID 27529700, PMID 29467940; details: cited from earlier work
[3] = parameters: method as in PMID 12490735; details: second line therapy in the metastatic setting; cited from earlier work
[4] = Sulfation in rat liver cytosol with PAPS
Experimental: Sulfate conjugation is enabled by sulfotransferases in the presence of the cofactor 3'-phosphoadenosine-5'-phosphosulfate (PAPS).
The pre-incubation solution was prepared by adding 13.5 μL 1 M pH=7.5 Tris-HCl buffer, 247.5 μL water, 6 μL 1 mM 3'-Phosphoadenosine-5'-phosphosulfate (PAPS) from R&D Systems, 30 μL (10 mg/mL) cytosolic protein from Corning Gentest into a 1.5 mL microcentrifuge. The mixtures were incubated at 37°C for 5 min in an incubator. Then 3 μL of 10 mM ZB716 was added, mixed, and incubated at 37°C for 60 min in the incubator. After incubation, 300 μL MeOH was added to terminate the reaction. The final mixture was then -centrifuged at 10,000×g for 4 min at 4 °C. The supernatant was analyzed by the UHPLC-Q-Exactive instrument.
The Q-Exactive mass spectrometer was coupled to a UHPLC ultimate 3000 (Dionex) using a C-18 column (1.8 μm, 2.1 mm x 50 mm). The gradient started from 30% mobile phase B (acetonitrile with 0.05% formic acid) for 1 min, increased to 100% B in 4.5 min, held for 5 min, then decreased back to 30% B and held for 5 min. Mobile phase A was water with 0.05% formic acid. The flow rate was controlled at 0.3 mL/min. PRM mode was used to obtain the fragment patterns for metabolites with the setting of MS2 resolution of 17500, AGC target of 1e5, maximum IJ of 100 ms, NCE setting of 35. […]

[5] = ZB716 and metabolites in rat feces after oral dosing; details: for share measured in feces after 72 hours: oral ZB716, after 72 h
Experimental: (§1) Female Sprague-Dawley rats, weighing between 350 and 400 g (Charles River Laboratories, Portage, MI), were used for this study on ZB716. Oral gavages containing ZB716 were formulated in 5% dimethyl sulfoxide (DMSO), 40% polyethylene glycol 400, and 55% saline. Rats were housed in metabolic cages for collection of urine and feces samples after oral administration of ZB716 at a dose of 5 or 10 mg/kg. […] Urine and feces were collected for the durations of 0-1h, 1-3h, 3-6h, 6-8h, 8-24h, 24-48h, 48-72h, 72-96h, and 96-120 h after drug administration.
The internal standard of trans-tamoxifen-13C2,15N (0.5 ng/μL in methanol) was added to the feces samples at 10 ng/g feces based on the weight of the feces collected. Feces samples were homogenized with a Power Gen 125 homogenizer (Fisher Scientific) in the mixture of chloroform/methanol (2:1, v:v) and stored at -20 °C overnight. After sonicating for 30 min, the samples were centrifuged with a Heraeus Megafuge16R centrifuge at 3000 RPM. The supernatant was dried with nitrogen gas at room temperature and resuspended with corresponding amount of methanol (200 μL methanol/g feces) for injection on the UHPLC-Q-Exactive instrument.
(§2) The Q-Exactive mass spectrometer was coupled to a UHPLC ultimate 3000 (Dionex) using a C-18 column (1.8 μm, 2.1 mm x 50 mm). The gradient started from 30% mobile phase B (acetonitrile with 0.05% formic acid) for 1 min, increased to 100% B in 4.5 min, held for 5 min, then decreased back to 30% B and held for 5 min. Mobile phase A was water with 0.05% formic acid. The flow rate was controlled at 0.3 mL/min. PRM mode was used to obtain the fragment patterns for metabolites with the setting of MS2 resolution of 17500, AGC target of 1e5, maximum IJ of 100 ms, NCE setting of 35. The heated ESI probe setting was set as sheath gas at 30 psi, auxiliary gas at 8 psi, spray voltage at 2500V, capillary temperature at 280°C, S-lens RF level at 50, and auxiliary gas heater temperature at 300°C.
Concentrated stock solutions of ZB716 and fulvestrant were prepared at 1 mM in methanol. The stock solution of the internal standard (trans-tamoxifen-13C2,15N) was prepared at 1000 ng/μL in methanol.

[6] = ZB716 and metabolites in rat urine after oral dosing; details: for share in urine accounted for in urinary excretion 72 hours after oral dosage: oral ZB716, after 72 h
Text: Urine samples were subjected to the same HPLC-MS/MS analysis to identify ZB716 and any possible metabolites over a time course post oral administration. […] Again, quantitation was only possible with ZB716 and fulvestrant for which standard calibration curves were established.
as §1
Urine samples were thawed at room temperature and vortaxed. 200 μL of the sample was transferred to a 1.5 mL Eppendorf microcentrifuge tube followed by adding 10 μL of the 0.5 ng/μL trans-tamoxifen-13C2,15N in methanol solution and 200 μL methanol. After Vortaxing and centrifuging, the sample was injected into the UHPLC-Q-Exactive instrument for analysis.
as §2
(§3) Concentrated stock solutions of ZB716 and fulvestrant were prepared at 1 mM in methanol. The stock solution of the internal standard (trans-tamoxifen-13C2,15N) was prepared at 1000 ng/μL in methanol. The above stock solutions were kept at -20°C until use. The working solutions of ZB716 and fulvestrant were prepared at 100 μM in methanol. The working solution of the internal standard trans-tamoxifen-13C2, 15N was prepared at 5 ng/μL and 0.5 ng/ μL in methanol, respectively. Working solutions at various concentrations were prepared by diluting their corresponding stock solution with methanol. Calibration standards quality control solutions were prepared over a range of five orders of magnitude.

[7] = Oxidative metabolism of ZB716 in rat liver microsomes with NADPH; details: ZB716 with rat liver microsome and NADPH, 1 hour
Experimental: By incubating ZB716 with rat liver microsome in the presence of NADPH for 1 hour, the cytochrome P450 enzymes in the microsomes were allowed to oxidize ZB716 under aerobic conditions.
NADPH solution A contains NADP+ and Glucose 6-phosphate. NADPH solution B contains Glucose-6-phosphate dehydrogenase, which is necessary for NADPH regeneration. The pre-incubation solution was prepared by adding 30 μL of potassium phosphate buffer (pH 7.4; 10x), 241.5 μL water, 15μL of NADPH solution A, 3 μL of NADPH solution B, and 7.5 μL rat liver microsomes from Corning Gentest into a 1.5 mL microcentrifuge tube. The mixtures were incubated at 37°C for 5 min in an incubator. Then 3 μL of 10 mM ZB716 was added, mixed, and incubated at 37°C for 60 min in the incubator. After incubation, 300 μL MeOH was added to terminate the reaction. The final mixture was then centrifuged at 10,000×g for 4 min at 4°C. The supernatant was analyzed by UHPLC-HRMS (Thermo Q-Exactive).
The Q-Exactive mass spectrometer was coupled to a UHPLC ultimate 3000 (Dionex) using a C-18 column (1.8 μm, 2.1 mm x 50 mm). The gradient started from 30% mobile phase B (acetonitrile with 0.05% formic acid) for 1 min, increased to 100% B in 4.5 min, held for 5 min, then decreased back to 30% B and held for 5 min. Mobile phase A was water with 0.05% formic acid. The flow rate was controlled at 0.3 mL/min. […]

[8] = Glucuronidation in liver microsomes with UGT reaction mix (UDPGA); details: fulvestrant incubated with liver microsomes and UDPGA
Experimental: The pre-incubation solution was prepared by adding 205.5 μL water, 24 μL of UGT Reaction Mix solution A, 60μL of UGT Reaction Mix solution B, 7.5 μL rat liver microsomes from Corning Gentest into a 1.5 mL microcentrifuge. The mixtures were incubated at 37°C for 5 min in an incubator. Then 3 μL of 10mM ZB716 was added, mixed, and incubated at 37°C for 60 min in the incubator. After incubation, 300 μL MeOH was added to terminate the reaction. The final mixture was then centrifuged at 10,000× g for 4 min at 4 °C. The supernatant was analyzed by the UHPLC-Q-Exactive instrument.
as §2

[9] = Metabolism and pharmacokinetics of ZB716 in rat plasma after oral dosing
Experimental: The same PRM approach was used to identify the metabolites of ZB716 in rat plasma collected at various time points after a single oral dose of 10 mg/kg. […] The pharmacokinetics parameters were calculated using a noncompartment extravascular model (Table 3).
Female Sprague-Dawley rats, weighing between 350 and 400 g (Charles River Laboratories, Portage, MI), were used for this study on ZB716. Oral gavages containing ZB716 were formulated in 5% dimethyl sulfoxide (DMSO), 40% polyethylene glycol 400, and 55% saline. Rats were housed in metabolic cages for collection of urine and feces samples after oral administration of ZB716 at a dose of 5 or 10 mg/kg. […] Urine and feces were collected for the durations of 0-1h, 1-3h, 3-6h, 6-8h, 8-24h, 24-48h, 48-72h, 72-96h, and 96-120 h after drug administration. Blood samples were collected from the lateral tail vein of the rats at 5 min, 15 min, 30 min, 1 h, 3 h, 6 h, 8 h, 24 h, and 48 h time points after drug administration. Rat blood was collected with a capillary into 1.5 mL microcentrifuge tubes containing 0.01 mL of 10 % EDTA anticoagulant. Plasma was then separated from cell pellets by centrifugation in a refrigerated centrifuge at 4 °C and transferred to a separate tube. Plasma samples were frozen at -80 °C until analysis.
Plasma samples (100 μL) were extracted using a modified Folch method for lipid extraction. Internal standard (10 μL 0.5 ng/μL trans-tamoxifen-13C2,15N in methanol), methanol (0.5 mL) and chloroform (1 mL) were added to each plasma sample. The mixtures were stored at −20 °C overnight. Samples were sonicated for 10 min and then centrifuged with a Thermo Scientific Heraeus Megafuge16 centrifuge. The top liquid layer was transferred to another test tube. The bottom residual layer was washed with 0.5 mL of chloroform/methanol (2:1), centrifuged, and the top layer was transferred and combined with the previous top layer. The mixture was dried out with nitrogen at room-temperature and re-suspended in 100 μL of HPLC grade methanol for injection.
as §2, §3

[10] = female, Sprague-Dawley, rat, plasma, po, 10 mg/kg

Compound: CC12CCC3c4ccc(O)cc4CC(CCCCCCCCC[S+]([O-])CCCC(F)(F)C(F)(F)F)C3C1CCC2OC1OC(C(=O)O)C(O)C(O)C1O (stereo not drawn) [FU-17-glucuronide]
- share of fulvestrant glucuronidation products [1]: 5-10%

- site of sulfation ([4]; fulvestrant incubated with rat liver cytosol): predominantly at 3-position
- detected in rat feces ([5]; rat feces after single oral dose of ZB716, + detected, - not detected): detected
- share measured in feces after 72 hours ([5]; rat): Less than 1%
- fulvestrant excreted in feces before 72 h ([5]; rat, oral ZB716, metabolite fulvestrant, before 72 h): 69.2%
- detected in rat urine ([6]; rat urine after oral administration of ZB716, + detected, - not detected): detected
- share in urine accounted for in urinary excretion 72 hours after oral dosage ([6]; rat): less than 1%
- share of all fulvestrant found in urine excreted in the first 48 hours ([6]; rat, oral ZB716, metabolite fulvestrant, first 48 h): 97.6%
- oxidative metabolite of ZB716 identified in incubation mixture [7]: identified
- site of glucuronidation [8]: primarily at 3-OH
- detected in rat plasma ([9]; rat plasma after single oral dose of ZB716 10 mg/kg, + detected, - not detected): identified
Compound: C[C@]12CC[C@@H]3c4ccc(O)cc4C[C@@H](CCCCCCCCC[S+]([O-])CCCC(F)(F)C(F)(F)F)[C@H]3[C@@H]1CC[C@@H]2O (stereo partly drawn) [Fulvestrant, reference compound]
- peak plasma concentration ([2]; animals, similar dosage via s.c. injection): 20 ng/mL
- clinical response rate [3]: below 20%

- number of sulfate conjugation products observed ([4]; ZB716 with rat liver cytosol and PAPS): three
- share measured in feces after 72 hours ([5]; rat): Less than 1%
- share of total ZB716 present in feces excreted in 24 hours ([5]; rat, oral, 0-24 h): 80.7%
- share of ZB716 in feces excreted between 24 h to 72 h ([5]; rat, oral, 24-72 h): 10.2%
- share in urine accounted for in urinary excretion 72 hours after oral dosage ([6]; rat): less than 1%
- share of ZB716 in urine excreted between 24 h to 72 h ([6]; rat, oral, 24-72 h): 34.4%
- share of ZB716 in urine excreted before 24 h ([6]; rat, oral, before 24 h): about 63.7%
- number of direct or indirect oxidative metabolites identified [7]: eight
- AUC(0-t) [9, 10]: 1300 ng·h/mL
- MRT inf [9, 10]: 18.4 h
- Tmax [9, 10]: 2 h
- concentration at 1 h [9, 10]: 130 ng/mL
- concentration at 4 h [9, 10]: 87.1 ng/mL
- concentration at 8 h [9, 10]: 26.4 ng/mL
- concentration at 48 h [9, 10]: 6.91 ng/mL
- k el [9, 10]: 1.11e-05 s⁻¹
- share of ZB716 metabolized to fulvestrant ([9]; in vivo, observed in mice (ref 27-28) and again in rats in this study): 10-30%
- AUC 0-inf_obs ([9]; rat, oral 10 mg/kg): 1451.82 ng·h/mL
- Cmax ([9]; rat, oral 10 mg/kg): 158.12 ng/mL
- Vz/Fobs (apparent volume of distribution during terminal phase) ([9]; rat, oral 10 mg/kg): 13.97 (mg/kg)/(ng/mL)
- t1/2 ([9]; rat, oral 10 mg/kg, noncompartment extravascular model): 17.03 h
- loss of plasma concentration from 2 h to 4 h ([9]; rat, single oral dose 10 mg/kg, within 2 hours after peak): 44.9%
Compound: C[C@]12CC[C@@H]3c4ccc(B(O)O)cc4C[C@@H](CCCCCCCCC[S+]([O-])CCCC(F)(F)C(F)(F)F)[C@H]3[C@@H]1CC[C@@H]2O (stereo partly drawn) [ZB716]
- peak plasma concentration ([2]; mice and rats, oral administration at 10 mg/kg): > 100 ng/mL
